According to US20210283111A1, “Methods of Inhibiting Osteoclastogenesis and Osteoclast Activity” (vTv Therapeutics LLC, priority 2018, published 2021):
“Also recorded” adds a separate entry of the source.

Key:
[1] = system: RANKL-mediated osteoclastogenesis in RAW264.7 cells; assay: Osteoclastogenesis assay: TRAP staining of RANKL-stimulated RAW264.7 cells; format: cell-based, Mouse; conditions: for No. of TRAP-positive multinucleated cells (Cells/Well): RANKL 100 ng/mL + compound 400 nM, 4 days, Control 0.00, RANKL alone 140.00; for effect on number of TRAP-positive multinucleated cells / RANKL-mediated osteoclastogenesis: RANKL 100 ng/mL, compound 400 nM
Protocol: Cells were plated on 96-well plates (RAW264.7 cells: 10^3 cells/well) in triplicate in the presence or absence of recombinant RANKL (100 ng/ml) with or without the test compounds. After 4 days culture, cells were stained for tartrate-resistant acid phosphatase (TRAP) using an acid phosphatase kit (Sigma-Aldrich, St. Louis, Mo.). Dark red multinucleated cells (>3 nuclei) were counted as TRAP-positive multinucleated cells.

[2] = system: osteoclast marker genes (Atp6v0d2, Trap, Mmp9, Cathepsin K, Dcstamp, and Oscar) in RANKL-stimulated RAW 264.7 cells; assay: Real-time RT-PCR of osteoclast marker gene expression; format: cell-based, Mouse; conditions: RAW264.7 cells, RANKL + compound 400 nM; for Dcstamp Fold Change from Control (Ave) / ATP6vd2 Fold Change from Control (Ave) / Cathepsin K Fold Change from Control (Ave) / Oscar Fold Change from Control (Ave) / Mmp9 Fold Change from Control (Ave) / TRAP Fold Change from Control (Ave): 4 days; for Dcstamp Fold Change from Control (Ave): Control 1.00, RANKL alone 4.32; for ATP6vd2 Fold Change from Control (Ave): Control 1.00, RANKL alone 4.69; for Cathepsin K Fold Change from Control (Ave): Control 1.00, RANKL alone 7.83; for Oscar Fold Change from Control (Ave): Control 1.00, RANKL alone 23.88; for Mmp9 Fold Change from Control (Ave): Control 1.00, RANKL alone 42.90; for TRAP Fold Change from Control (Ave): Control 1.00, RANKL alone 132.47
Protocol: (§1) RNA was extracted from RAW264.7 cells using the GenElute mammalian total RNA Miniprep kit (Sigma-Aldrich, St. Louis, Mo.) with on-column genomic DNA digestion according to the manufacturer's instructions. For antioxidant gene expression analysis, RNA was extracted at 1 day after test compound treatment, and the gene expressions of HMOX1 and NQO1 was analyzed. For osteoclast marker gene expression analysis, RNA was extracted at 4 days after RANKL stimulation, and the gene expressions of Atp6v0d2, Cathepsin K, Matrix metalloproteinase 9, Trap, Dcstamp, and Oscar were analyzed. After measurement of the RNA concentration, isolated RNA (500 ng each) was reverse transcribed with iScript cDNA-Supermix (Bio-Rad Laboratories, Hercules, Calif.). Real-time RT-PCR was performed with SsoFast EvaGreen-Supermix (Bio-Rad Laboratories). PCR primers used in the experiments were from PrimerBank and were described in H. Kanzaki, et al. “The Keap1/Nrf2 protein axis plays a role in osteoclast differentiation by regulating intracellular reactive oxygen species signaling,” The Journal of Biological Chemistry 288(32) (2013) 23009-20. Fold changes of gene of interest were calculated by using the […] method with ribosomal protein S18 as reference gene. Data shown are representative of 3 independent experiments performed in triplicate.

[3] = system: RANKL-stimulated RAW264.7 cells; assay: Resorption assay on bone resorption assay plate (calcium phosphate substrate); format: cell-based, Mouse; conditions: for Ave of Resorbed Area per Filed (%): RANKL 100 ng/mL + compound 400 nM, 7 days, Control 0.00, RANKL alone 1.14; for effect on resorption areas: RANKL + compound 400 nM
Protocol: RAW264.7 cells were plated on synthesized calcium phosphate substrate (bone resorption assay plate; PG Research, Tokyo, Japan) and stimulated with RANKL in the presence or absence of test compounds. After 7 days of cultivation, cells were removed with bleach, and the calcium phosphate substrate was washed with distilled water and then dried. Photographs were taken, and the average of the resorbed area per field was calculated from 12 images of each sample, using ImageJ software (National Institutes of Health, Bethesda).

[4] = system: HMOX1 and NQO1 in RAW264.7 cells; assay: Real-time RT-PCR of antioxidant gene expression; format: cell-based, Mouse; conditions: 400 nM
Protocol: as §1

[5] = system: RANKL-triggered intracellular ROS production in RAW264.7 cells; assay: Intracellular ROS detection by flow cytometry (BES-So-AM); format: cell-based, Mouse; conditions: pretreated 1 h, RANKL 6 h
Protocol: Cells were pretreated with or without Compound HPP-4 for 1 h, stimulated with soluble RANKL for 6 h, washed with PBS, and collected. Cells were then incubated with fluorescent superoxide probe (BES-So-AM; Wako Pure Chemical) on ice. After washing, intracellular ROS was detected using an AccuriC6 flow cytometer (BD Biosciences, San Jose, Calif., USA). The viable monocyte/macrophage fraction was gated on a forward scatter/side scatter plot, and ROS levels were monitored in the FL-1 channel. Data shown are representative of 3 independent experiments performed in triplicated.

[6] = system: LPS-mediated bone destruction in mice calvaria; assay: In vivo bone destruction model (LPS-induced calvarial bone destruction, μCT); set-up: species or system BALB/c mice
Protocol: The animal experimental protocol was reviewed and approved by the Institutional Animal Care and Use committee, Tsurumi University (approval number; 28A030). All animals were treated ethically, and animal experiments were performed in compliance with the Regulations for Animal Experiments and Related Activities at Tsurumi University. The calvarial bone destruction mouse model, induced by repeated LPS injections. Twenty 7-week-old male BALB/c mice (Clea Japan, Tokyo, Japan) were used. Mice were randomly assigned to four groups (n=5 each): a Dimethyl sulfoxide (DMSO)-injected group (control group; 10 μl PBS+2 μl DMSO), a HPP-4-injected group (HPP-4 group; 10 μl PBS+2 μl of Cpd. HPP-4 2 μM), an LPS-induced bone resorption group (LPS group; 10 μl of 1 μg/μl LPS+2 μl DMSO) and an LPS-induced bone resorption and Cpd. HPP-4-injected group (LPS+HPP-4 group; 10 μl of 1 μg/μl LPS+2 μl of HPP-4 2 μM), Injections were performed under anaesthesia with a 30-gauge needle at a point on the midline of the skull located between the eyes on days 1, 3, 5, 7, and 9. On day 11, mice were sacrificed by cervical dislocation and cranial tissue samples were fixed overnight with 4% paraformaldehyde in PBS.
Fixed cranial tissue samples were subsequently scanned with an X-ray microcomputed tomography […] system (inspeXio SMX-225CT; Shimadzu Corp., Kyoto, Japan). After reconstitution, the DICOM files were rendered into three-dimensional images using Pluto software. Percentage of resorbed area, calculated from the ratio of the number of pixels in the resorbed area in the cranial bone to the number of pixels in the total analyzed image of the cranial bone, was calculated with the ImageJ software. The region of interest was set between the fronto-parietal (coronal) suture and parietooccipital (lambdoidal) suture.

Row | Structure (SMILES) | No. of TRAP-positive multinucleated cells (Cells/Well) [1] [Cells/Well] | effect on number of TRAP-positive multinucleated cells / RANKL-mediated osteoclastogenesis [1] | RANKL-mediated upregulation of osteoclast marker genes [2] | difference from RANKL alone in Atp6v0d2, Mmp9, and Oscar expression [2] | Dcstamp Fold Change from Control (Ave) [2] [Fold Change from Control] | ATP6vd2 Fold Change from Control (Ave) [2] [Fold Change from Control] | Cathepsin K Fold Change from Control (Ave) [2] [Fold Change from Control] | Oscar Fold Change from Control (Ave) [2] [Fold Change from Control] | Mmp9 Fold Change from Control (Ave) [2] [Fold Change from Control] | TRAP Fold Change from Control (Ave) [2] [Fold Change from Control] | Ave of Resorbed Area per Filed (%) [3] [%] | effect on resorption areas [3] | HMOX1 Fold Change from Control (Ave) ([4]; 1 day, Control 1.00) [Fold Change from Control] | NQO1 Fold Change from Control (Ave) ([4]; 1 day, Control 1.00) [Fold Change from Control] | expression of antioxidant enzymes NQO1 and HMOX1 ([4]; p<0.05 relative to control) | RANKL-mediated increase in intracellular ROS (superoxide) [5] | LPS-mediated bone destruction ([6]; local injection of HPP-4, μCT) | Percent Resorbed (%), HPP-4 alone ([6]; local injection of HPP-4 without LPS on days 1, 3, 5, 7, 9, μCT day 11, Control 0.15) [%] | Percent Resorbed (%), LPS + HPP-4 ([6]; local injection of LPS + HPP-4 on days 1, 3, 5, 7, 9, μCT day 11, Control 0.15, LPS alone 4.27) [%]
1 | COCCNC(=O)c1cnc2c(c1)nc(Nc1nc3ccc(OC(F)(F)F)cc3s1)n2C [HPP-1, 3-Methyl-2-(6-trifluoromethoxy-benzothiazol-2-ylamino)-3H-imidazo[4,5-b]pyridine-6-carboxylic acid (2-methoxy-ethyl)-amide] | 139.33 | no effect | weak suppression | no significant differences | 3.33 | 3.52 | 5.96 | 20.22 | 39.73 | 106.62 | 1.21 |  |  |  |  |  |  |  | 
2 | CN(C)C(=O)CNC(=O)c1ccc2c(c1)nc(Nc1nc3ccc(C(F)(F)F)cc3s1)n2C [HPP-2, 1-Methyl-2-(6-trifluoromethyl-benzothiazol-2-ylamino)-1H-benzimidazole-5-carboxylic acid dimethylcarbamoylmethyl-amide] | 97.67 | no effect | suppressed |  | 2.55 | 3.09 | 4.42 | 10.03 | 24.02 | 73.81 | 0.78 |  |  |  |  |  |  |  | 
3 | C[C@H](O)CNC(=O)c1ccc2c(c1)nc(Nc1nc3ccc(OC(F)(F)F)cc3s1)n2C [HPP-3, 1-Methyl-2-(6-trifluoromethoxy-benzothiazol-2-ylamino)-1H-benzoimidazole-5-carboxylic acid ((S)-2-hydroxy-propyl)-amide] | 65.00 | decreased | suppressed |  | 2.14 | 2.36 | 3.31 | 6.45 | 23.89 | 59.23 | 0.22 | reduced the resorption areas such that there was no significant difference from control |  |  |  |  |  |  | 
4 | Cn1c(Nc2nc3ccc(C(F)(F)F)cc3s2)nc2cc(C(=O)NCCOCCO)ccc21 [HPP-4, 1-Methyl-2-(6-trifluoromethyl-benzothiazol-2-ylamino)-1H-benzoimidazole-5-carboxylic acid [2-(2-hydroxy-ethoxy)-ethyl]-amide] | 29.00 | decreased the number of TPAP-positive multinucleated cells to that of control | suppressed |  | 2.39 | 2.59 | 2.99 | 8.18 | 20.21 | 59.76 | 0.23 | reduced the resorption areas such that there was no significant difference from control | 1.62 | 2.67 | increased | inhibited | ameliorated LPS-induced bone destruction; also recorded: significantly inhibited LPS-mediated bone destruction | 0.42 | 1.84
